In ChEMBL document CHEMBL5465560, “Selectivity Literature for EUbOPEN Chemogenomic Library” (2024):
Blank lines part the entries; values can stand above or below the molecule they belong to.

Columns and labels:
[1] = target: SRSF protein kinase 1 (Homo sapiens, UniProt Q96SB4); test: Selectivity interaction (ActivX KiNativ screen (kinase selectivity in THP-1 cell lysates)) EUB0000639a SRPK1; type: subcellular; details: lysate, at 5 µM
[2] = target: T1, Serine/threonine-protein kinase TAO2 (Homo sapiens) (UniProt Q9UL54); test: Selectivity interaction (KinomeScan (DiscoverX)) EUB0001079a TAOK2; details: at 1 µM
T1 sequence (whole entry): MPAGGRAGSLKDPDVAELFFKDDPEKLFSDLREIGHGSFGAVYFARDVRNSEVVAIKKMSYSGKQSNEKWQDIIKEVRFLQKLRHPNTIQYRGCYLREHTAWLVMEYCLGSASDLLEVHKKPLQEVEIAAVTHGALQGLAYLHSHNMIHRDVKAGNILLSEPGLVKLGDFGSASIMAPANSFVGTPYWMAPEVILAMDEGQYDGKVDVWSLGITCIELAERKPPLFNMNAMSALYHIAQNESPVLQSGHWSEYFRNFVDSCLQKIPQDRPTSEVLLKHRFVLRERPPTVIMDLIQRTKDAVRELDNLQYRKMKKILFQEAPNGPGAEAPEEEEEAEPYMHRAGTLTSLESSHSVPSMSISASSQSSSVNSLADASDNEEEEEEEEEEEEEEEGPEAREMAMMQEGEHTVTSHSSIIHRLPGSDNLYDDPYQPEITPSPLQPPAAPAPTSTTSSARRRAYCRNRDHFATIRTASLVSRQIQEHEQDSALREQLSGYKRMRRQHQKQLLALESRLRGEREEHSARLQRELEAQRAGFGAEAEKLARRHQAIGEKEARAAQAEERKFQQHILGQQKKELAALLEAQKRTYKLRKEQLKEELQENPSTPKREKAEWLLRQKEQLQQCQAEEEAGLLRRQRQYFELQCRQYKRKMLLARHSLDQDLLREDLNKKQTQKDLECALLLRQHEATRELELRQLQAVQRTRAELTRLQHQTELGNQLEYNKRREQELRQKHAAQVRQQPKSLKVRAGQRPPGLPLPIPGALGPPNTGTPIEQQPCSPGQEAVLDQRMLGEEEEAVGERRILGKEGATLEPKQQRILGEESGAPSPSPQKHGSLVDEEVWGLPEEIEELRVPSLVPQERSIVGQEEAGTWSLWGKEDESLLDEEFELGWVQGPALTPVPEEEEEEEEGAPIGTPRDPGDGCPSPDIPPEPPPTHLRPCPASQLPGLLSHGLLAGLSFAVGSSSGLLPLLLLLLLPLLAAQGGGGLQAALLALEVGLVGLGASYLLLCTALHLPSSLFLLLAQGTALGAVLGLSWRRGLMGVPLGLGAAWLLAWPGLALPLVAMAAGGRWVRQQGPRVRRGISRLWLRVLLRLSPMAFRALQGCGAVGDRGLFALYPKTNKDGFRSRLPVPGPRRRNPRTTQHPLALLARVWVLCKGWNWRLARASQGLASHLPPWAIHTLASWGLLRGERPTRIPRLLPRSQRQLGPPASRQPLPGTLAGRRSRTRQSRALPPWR

[3] = target: T2, MAP/microtubule affinity-regulating kinase 4 (Homo sapiens) (UniProt Q96L34); test: Selectivity interaction (Kinase panel (KiNativ target engagement assay in Jurkat cells)) EUB0001635a MARK4; type: cell-based; details: Selectivity number of off-targets 0.0, Selectivity number of targets 233.0, Source Knowledge https://www.sciencedirect.com/science/article/pii/S2451945619300674?via%3Dihub, at 1 µM
T2 sequence (whole entry): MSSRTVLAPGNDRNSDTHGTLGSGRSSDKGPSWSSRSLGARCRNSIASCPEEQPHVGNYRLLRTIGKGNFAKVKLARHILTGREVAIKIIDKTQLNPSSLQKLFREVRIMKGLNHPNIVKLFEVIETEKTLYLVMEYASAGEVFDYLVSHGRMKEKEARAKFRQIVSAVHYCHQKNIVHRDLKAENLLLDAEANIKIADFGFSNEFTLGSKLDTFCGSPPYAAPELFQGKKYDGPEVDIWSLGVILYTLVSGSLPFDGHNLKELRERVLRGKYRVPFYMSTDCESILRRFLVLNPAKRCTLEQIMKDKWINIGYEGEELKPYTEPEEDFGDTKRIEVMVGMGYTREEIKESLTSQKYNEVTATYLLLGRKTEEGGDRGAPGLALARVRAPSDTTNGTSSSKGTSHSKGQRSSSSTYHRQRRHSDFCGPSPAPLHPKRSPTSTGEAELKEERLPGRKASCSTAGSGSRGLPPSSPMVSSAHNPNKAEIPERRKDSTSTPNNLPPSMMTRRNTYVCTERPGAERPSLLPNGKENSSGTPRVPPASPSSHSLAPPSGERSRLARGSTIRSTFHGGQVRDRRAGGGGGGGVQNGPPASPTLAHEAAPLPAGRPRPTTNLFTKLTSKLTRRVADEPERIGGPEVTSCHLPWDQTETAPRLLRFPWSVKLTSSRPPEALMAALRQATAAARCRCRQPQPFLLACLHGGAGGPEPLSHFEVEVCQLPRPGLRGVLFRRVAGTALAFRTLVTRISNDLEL

Sequence of SRSF protein kinase 1 (Q96SB4 whole entry): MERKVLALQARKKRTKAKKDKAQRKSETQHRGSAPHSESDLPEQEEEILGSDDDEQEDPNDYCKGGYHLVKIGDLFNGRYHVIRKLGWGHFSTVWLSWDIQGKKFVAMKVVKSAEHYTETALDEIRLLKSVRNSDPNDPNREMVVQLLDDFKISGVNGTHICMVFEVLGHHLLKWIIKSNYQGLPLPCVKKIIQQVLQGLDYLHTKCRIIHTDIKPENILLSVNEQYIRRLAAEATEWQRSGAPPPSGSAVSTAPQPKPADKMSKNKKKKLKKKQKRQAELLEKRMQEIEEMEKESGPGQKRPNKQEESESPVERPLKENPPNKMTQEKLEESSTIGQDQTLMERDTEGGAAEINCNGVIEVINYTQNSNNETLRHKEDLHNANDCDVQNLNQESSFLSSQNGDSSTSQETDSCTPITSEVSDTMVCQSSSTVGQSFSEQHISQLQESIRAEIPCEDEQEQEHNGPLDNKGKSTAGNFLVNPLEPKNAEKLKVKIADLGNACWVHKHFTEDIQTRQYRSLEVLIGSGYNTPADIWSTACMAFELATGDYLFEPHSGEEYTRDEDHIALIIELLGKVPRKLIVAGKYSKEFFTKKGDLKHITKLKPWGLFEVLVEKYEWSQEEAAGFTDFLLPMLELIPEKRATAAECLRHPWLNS

% of inhibition [1]: -1.1%
SMILES: CC[C@@H]1[C@H](F)C(=O)N[C@@H]1COc1nccc2cc(C(N)=O)c(OC)cc12 [ZIMLOVISERTIB]

SMILES: Nc1cnc(N2CCc3cc(S(=O)(=O)Nc4c(F)cc(Cl)cc4F)cc(N4CCCC4=O)c32)nc1 [TP-020n]
% of control [2]: 78%

SMILES: C=CC(=O)Nc1ccc(C(=O)Nc2[nH]nc3c2CN(C(=O)N[C@H](CN(C)C)c2ccccc2)C3(C)C)cc1
% of engagement [3]: 55.8%
